Measured values taken from US10457665B2, “1,4-di-(4-methylthiophenyl)-3-phtaloylazetidine-2-one and the derivatives thereof” (Universite De Nantes, priority 2015, dated 2019).

Assays:
[1] = system: CB1R expression in liver explants of ob/ob mice; assay: Liver explant culture, CB1R gene expression (RT-PCR); format: cell-based, mouse; settings: liver explants of ob/ob mice treated 21 h, FIG. 1
Procedure: The liver of the mice was perfused in situ, under sodium pentobarbital anaesthesia (50 mg/kg), with Hank's medium (pH 7.4) saturated with oxygen. Next, the liver was sectioned using a Brendel/Vitron slicer (Tucson, Ariz., USA) in the same medium. The liver sections (about 200 μm) were then incubated 21 h in William's medium E (WME) oxygenated and supplemented with deactivated foetal calf serum (10%) and antibiotic/antifungal cocktail (1%) under controlled atmosphere (5% CO2), to which is added either the antagonist to be tested or vehicle.
Total messenger RNA (mRNA) extraction was carried out with Tri Reagent (Euromedex, France) and consecutive synthesis of complementary DNA (cDNA) was carried out from 1 μg of mRNA with the Bio-Rad iScripttm Reverse Transcription super mix kit (Bio-Rad, France).
Gene expression was evaluated by semi-quantitative real-time reverse transcription-polymerase chain reaction (RT-PCR). The primers used were designed using the Primer3Plus software (http://www.bioinformatics.nl/cgi-bin/primer3plus/primer3plus.cgi) and were synthesized by MWG-Biotech (TATA box-binding protein: Sense […], antisense […]; CB1R: Sense […], antisense aaccccacccagtttgaac). Semi-quantification of gene expression was obtained by taking into account the efficacy of each PCR and after standardization with the reporter gene, TATA box-binding protein.

[2] = system: wild-type C57BL/6 mice; assay: Acute oral glucose tolerance test (OGTT) in wild-type mice; format: in vivo, mouse; settings: 10 mg/kg i.p. 10 min before 2 g/kg oral glucose load, wild-type C57Bl/6J mice
Procedure: (§1) In order to evaluate the short-term effects of the rimonabant-like molecules, as well as their selectivity for CB1R, wild-type C57BL/6 mice and CB1R −/− mice underwent an oral glucose tolerance test (OGTT at 2 g/kg) 10 min after i.p. injection of vehicle or of JM-02.003 or JM-00.266 (i.e., compound IA) (10 mg/kg). Blood glucose was measured at times t=0, t=15 min, t=30 min, t=45 min, t=60 min, t=90 min, and t=120 min post-oral. glucose administration using a Contour®TS blood glucose monitor (ref. 81574201, Bayer HealthCare) and reactive strips (ref. 81574274, Bayer HealthCare).

[3] = target: T1, CB1R (pcDNA3.1-mCB1) (Mus musculus, UniProt P47746); assay: GloSensor cAMP assay in CB1R-transfected HEK293T/17 cells; format: cell-based; settings: for cAMP concentrations in the absence of agonist (AEA): HEK293T/17 cells transfected with mCB1, forskolin 1 μM, FIG. 2
T1 construct: expressed in transfected cells; host or cells: HEK293T/17 (ATCC), transient transfection with FuGENE HD
Procedure: HEK293T/17 (ATCC) cells were cultured in DMEM 10% FCS, then seeded at 30000 cells/well in 96-well plates. After 24 h, the cells were subjected to transient transfection by FuGENE HD (Promega) by pcDNA3.1-mCB1 (50 ng) and pGlo (100 ng) plasmids with or without pertussis toxin (PTX). For the control assays, the cells were transfected with empty pcDNA3 (EV) and pGlo vectors with or without PTX. At 48 h (24 h post-transfection), the cells were loaded for 2 h with 2% GloReagent in CO2-independent medium with 10% FCS (80 μL/well).
The cells were then treated by adding, at t=0, 10 μL/well of Forskolin (FSK) 1 μM final, in order to increase the basal cAMP concentration. The kinetics of appearance of cAMP was monitored for 10 minutes. At t=10, the molecules to be tested were added and the cAMP variations measured for 20 minutes. The light signal was measured in RLU and is expressed as % response relative to the signal read at t=10 min (FSK1 μM). Sigmoidal curves were obtained by measurement at t=10 min after addition of the molecule to be tested (thus t=20 min total) of the percentage of light signal as a function of molecule concentration. The 4PL regression was carried out using the Sigma Plot software and made it possible to obtain an EC50 (1 experiment, n=3).

[4] = system: CB1R -/- mice; assay: Acute oral glucose tolerance test (OGTT) in CB1R KO mice; format: in vivo, mouse; settings: 10 mg/kg i.p., OGTT 2 g/kg
Procedure: as §1

[5] = system: obese C57BL/6 mice; assay: Plasma liver markers after 30-day chronic treatment; format: in vivo, mouse
Description: (§2) In order to determine the long-term effects of the molecules of interest, C57BL/6 mice made obese by means of a high-sucrose, high-fat diet (HSHF: 30% crude fat, 33.5% carbohydrates; ref. E15126-34; ref. E15126-34, SSNIFF, Soest, Germany) for 20 weeks. These mice then received daily an i.p. injection of rimonabant, JM-00.266 (i.e., compound IA) or vehicle for a period of 30 days. In parallel, weight and food intake were monitored every two days following the beginning of the treatment.
Total cholesterol, triglycerides and hepatic markers were assayed by a Dimension Vista Intelligent Lab System (Siemens, Saint-Denis, France) using suitable reagents.

[6] = system: obese C57BL/6 mice; assay: Open-field test after 30-day chronic treatment; format: in vivo, mouse; settings: end of 30-day treatment, 10 mg/kg i.p.
Procedure: Locomotor activity of the mice was measured at the conclusion of the chronic treatment with rimonabant or molecule JM-00.266 (i.e., compound IA) by an infrared monitoring system. To that end, the animals were placed individually in 43×43 cm plexiglass boxes (MED associates) for 20 min. Two series of 16 pulsed infrared beams were spaced 2.5 cm apart on opposite walls to record ambulatory X-Y movements at 100 ms resolution. The centre was defined as a central 32×32 cm square. In addition to locomotor activity information, this test makes it possible to predict anxiolytic activity in response to novelty or to an anxiogenic environment. The variables measured in the open field are total ambulatory activity (in cm), the number of entries and the time spent in the central area as well as the distance traversed in the centre divided by the total distance traversed.

[7] = system: obese C57BL/6 mice; assay: OGTT before and after 30-day chronic treatment; format: in vivo, mouse; settings: obese mice after 30 days of treatment, 10 mg/kg
Procedure: (§3) In order to evaluate the long-term effects of the treatment on blood glucose control, glucose tolerance (OGTT) and insulin sensitivity (ITT) were evaluated pre- and post-treatment. Thus, for the OGTT the mice were force-fed glucose (2 g/kg), and for the ITT the mice received an i.p. injection of insulin (0.5 IU/kg). In both cases, blood glucose was measured at times t=0, t=15 min, t=30 min, t=45 min, t=60 min, t=90 min, and t=120 min post-glucose ingestion using a Contour®TS blood glucose monitor (ref. 81574201, Bayer HealthCare) and reactive strips (ref. 81574274, Bayer HealthCare).

[8] = system: obese C57BL/6 mice; assay: Food intake, body weight and body composition (EchoMRI) during 30-day chronic treatment; format: in vivo, mouse
Description: as §2
The long-term effect of the treatment on body composition was measured using an EchoMRI™ scanner allowing non-invasive analysis of fat mass, lean mass and body fluid composition by nuclear magnetic resonance (NMR) on the live animal without anaesthesia.

[9] = system: obese C57BL/6 mice; assay: ITT before and after 30-day chronic treatment; format: in vivo, mouse; settings: obese mice after 30 days of treatment, 10 mg/kg
Procedure: as §3

[10] = system: CB1R expression in liver explants of ob/ob mice; settings: previous study (Jourdan et al. 2012); cited from earlier work
[11] = system: C57BL/6 mice; assay: Gastrointestinal transit (charcoal), anandamide-induced inhibition; format: in vivo, mouse; settings: agonist alone, 10 mg/kg i.p.
Procedure: Transit through the stomach and the intestine was measured via oral administration of vegetable charcoal suspended in gum arabic used herein as nonabsorbable marker. Briefly, following a short fast, C57BL/6 mice were injected intraperitoneally (i.p.) with anandamide (10 mg/kg) in the presence or absence of the molecule of interest JM-00.266 (i.e., compound IA) (10 mg/kg) before oral charcoal administration. 25 minutes later, the animals were sacrificed by cervical dislocation in order to entirely remove the intestine. The distance between the beginning of the pylorus and the location of the charcoal bolus was measured.

[12] = obese mice, 10 mg/kg i.p. daily, 30 days

T1 sequence (P47746 whole entry): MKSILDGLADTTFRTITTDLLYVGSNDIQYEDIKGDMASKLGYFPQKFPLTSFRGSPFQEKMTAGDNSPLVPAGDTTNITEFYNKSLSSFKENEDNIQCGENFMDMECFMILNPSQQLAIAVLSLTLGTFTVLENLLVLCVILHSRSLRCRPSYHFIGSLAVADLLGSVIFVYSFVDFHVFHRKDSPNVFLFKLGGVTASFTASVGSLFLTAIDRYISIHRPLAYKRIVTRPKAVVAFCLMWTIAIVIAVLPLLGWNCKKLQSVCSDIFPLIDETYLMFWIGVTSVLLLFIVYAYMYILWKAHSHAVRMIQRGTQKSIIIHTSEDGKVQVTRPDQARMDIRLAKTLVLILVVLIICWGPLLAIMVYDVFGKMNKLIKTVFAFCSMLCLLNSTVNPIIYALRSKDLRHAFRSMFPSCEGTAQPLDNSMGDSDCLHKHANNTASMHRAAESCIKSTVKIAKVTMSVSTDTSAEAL

## COc1cc(OC)cc(N2C(=O)C(N3C(=O)c4ccccc4C3=O)C2c2ccncc2)c1 (stereo not drawn) [JM-02.003]
[1]
  hepatic CB1R expression: significant decrease
[2]
  glucose tolerance compared with vehicle: improves glucose tolerance
[3]
  cAMP concentrations in the absence of agonist (AEA): increased
[4]
  improvement in glucose tolerance in CB1R KO mice: persists

## O=C1C(N2C(=O)c3ccccc3C2=O)C(c2ccncc2)N1Cc1cccc(Cl)c1 (stereo not drawn) [JM-01.1006]
[1]
  hepatic CB1R expression: significant decrease
[3]
  cAMP concentrations in the absence of agonist (AEA): no effect

## Cc1c(C(=O)NN2CCCCC2)nn(-c2ccc(Cl)cc2Cl)c1-c1ccc(Cl)cc1 [SR141716, reference compound]
[5]; 30-day chronic treatment
  ALT and AST concentrations in plasma of obese mice versus control: significantly decreased
  liver damage markers compared with the control: does not cause an increase
[5]; [12]
  ALPI plasma concentration: 37.4 ± 2.4
  ALT plasma concentration: 21.6 ± 2.3 U/L
  AST plasma concentration: 46.4 ± 3.1 U/L
  Gamma GT plasma concentration: <3 U/L
  Total bilirubin plasma concentration: <2 µmol/L
[6]
  motor activity: increases motor activity
  time spent in the centre of the arena / anxiety state: not altered
[7]
  basal blood glucose: significant improvement
  glucose tolerance (OGTT 2 g/kg): significant improvement
[8]; end of 30-day treatment, NMR
  fat mass versus control mice: lower fat mass
  lean mass versus control mice: higher lean mass
[8]; [12]
  body weight relative to control mice: lost weight
  food intake compared with control mice: transiently decrease their food intake
[9]
  insulin resistance (ITT): improved
[10]
  CB1R expression in liver explants: reduced

## CCCCC/C=C\C/C=C\C/C=C\C/C=C\CCCC(=O)NCCO [AEA, reference compound]
[3]; data not shown
  intracellular cAMP concentration on activation of the receptors by agonist: reduction
[11]
  gastrointestinal transit: strongly inhibited

## CSc1ccc(C2C(N3C(=O)c4ccccc4C3=O)C(=O)N2c2ccccc2)cc1 (stereo not drawn) [JM-00.242]
[1]
  hepatic CB1R expression: not selected for the remainder of the study

## CSc1ccc(C2C(N3C(=O)c4ccccc4C3=O)C(=O)N2c2ccc(Cl)cc2)cc1 (stereo not drawn) [JM-00.246]
[1]
  hepatic CB1R expression: not selected for the remainder of the study
